Patent US6803501B2 (Monsanto Technology, LLC, priority 2000, dated 2004)
Positions count from the first letter of the chain named.

How the values were obtained:
[1] = system: EPSPS of the glyphosate sensitive E. indica biotype (wild type, plant crown extract); assay: radiometric EPSP synthase assay, glyphosate inhibition, plant extracts of sensitive biotype; type: biochemical, Eleusine indica; details: read-out: I50 (glyphosate); 1 mM shikimate-3-phosphate, 0.5 mM PEP, pH 7.0, 25° C.
Protocol: Preparation of extracts and radiometric EPSP synthase assays are performed using methods adapted from published procedures (Padgette et al., J. Biol. Chem. 266:22364-22369 (1991). Crown regions are dissected from whole plants, pulverized under liquid nitrogen with a mortar and pestle, then stored at −80° C. prior to extraction. Homogenates are prepared from 0.5 g tissue per sample in 25 ml extraction buffer (100 mM TrisCl, 10% glycerol, 1 mM EDTA, 1 mM benzamidine, 1 mM dithiothreitol, 1 mM 4-(2-aminoethyl)-benzenesulfonyl floride HCl, 0.1 mM leupeptin, pH 7.4) at 4° C. using a model PT3000 Polytron homogenizer (Brinkman Instuments Inc., Westbury, N.Y.). Debris is removed by 0.2 μm filtration, then the resulting supernatant is concentrated and desalted using an Ultrafree-15 centrifugal filtration unit (cat.#UFV2-BGC-10, Millipore Corp., Bedford, Mass.). Final sample volumes are approximately 0.5 ml. Protein concentrations are determined spectrophotometrically using the Bio-Rad protein assay reagent (cat.#500-0006, Bio-Rad Laboratories, Hercules, Calif.). EPSPS specific activities are determined by assaying 10 μl extract at 25° C. for 5-15 min. […] Reactions are quenched with the addition of 50 μl 9:1 ethanol: 0.1 M acetic acid. […]

[2] = system: E. coli SR481 cells expressing E. indica EPSP synthase (tolerant vs sensitive biotype); assay: growth of transgenic E. coli aroA- cells expressing E. indica EPSPS in the presence of glyphosate (FIG. 3); type: cell-based; details: M9 minimal media, 0.0, 0.5, 1.5 or 5.0 mM glyphosate, 0-48 hours, vs sensitive biotype enzyme
Protocol: The EPSP synthase mature protein-coding regions isolated from the glyphosate tolerant and glyphosate sensitive E. indica biotypes, can be directly compared for their ability to confer tolerance to glyphosate in transgenic hosts.
These sequences are employed in RT-PCR reactions to generate expression cassettes suitable for cloning into pMON45337 cut with the restriction enzymes Nde1 and EcoR1. RT-PCR reactions are performed with total RNAs extracted from frozen crown samples using the RNeasy Plant Mini Kit (cat.#74904, Qiagen Inc., Valencia, Calif.) per manufacturer's instructions. Oligo dT-primed first-strand cDNAs are prepared from 5 μg samples of total RNA using the Superscript Pre-Amplification System (cat.#18089-011, Life Technologies, Rockville, Md.) per manufacturer's instructions. Two μl of first-strand cDNA are then used to generate E. indica EPSP synthase expression cassettes via polymerase chain reaction. The oligonucleotides are added in 50 μl RT-PCR reactions at a final concentration of 0.4 μM. PCR amplifications are then performed using the Expand High Fidelity PCR System (cat.#1 732 641, Roche Molecular Biochemicals, Indianapolis, Ind.) per manufacturer's instructions, using a thermal profile of 94° C. for 30 seconds, then 57° C. for 2 minutes, followed by 75° C. for 3 minutes, for a total of 35 cycles. […]

[3] = molecular target: T1, Z. mays EPSPS variant glypR (Thr-Ile, Pro-Ser) (Zea mays, UniProt A0A1D6NVZ6, P168S/T164I); assay: kinetic characterization of EPSP synthase (Table 4); type: biochemical; details: read-out: apparent Ki for glyphosate; with respect to PEP, saturating S3P
T1 sequence (A0A1D6NVZ6 63-506 T164I/P168S limits assumed): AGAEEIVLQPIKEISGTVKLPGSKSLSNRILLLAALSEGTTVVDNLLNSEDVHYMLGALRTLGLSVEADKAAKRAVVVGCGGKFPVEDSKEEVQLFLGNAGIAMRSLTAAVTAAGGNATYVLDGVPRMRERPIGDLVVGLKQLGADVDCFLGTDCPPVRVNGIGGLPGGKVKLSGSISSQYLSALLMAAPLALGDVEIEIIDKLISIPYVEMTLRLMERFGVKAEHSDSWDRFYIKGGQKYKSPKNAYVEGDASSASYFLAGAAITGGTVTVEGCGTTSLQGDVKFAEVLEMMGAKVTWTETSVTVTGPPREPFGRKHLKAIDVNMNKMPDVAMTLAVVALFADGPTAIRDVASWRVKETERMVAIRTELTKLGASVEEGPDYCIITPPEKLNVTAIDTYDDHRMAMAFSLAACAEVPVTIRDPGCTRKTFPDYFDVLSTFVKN
Protocol: (§1) Final sample volumes are approximately 0.5 ml.

[4] = molecular target: T2, Z. mays glypS (wt) EPSPS (Zea mays, glyphosate sensitive, wild type) (Zea mays, UniProt A0A1D6NVZ6); assay: as above; type: biochemical
T2 sequence (A0A1D6NVZ6 63-506 limits assumed): T1 sequence (A0A1D6NVZ6 63-506 T164I/P168S limits assumed) with I102T, S106P
Protocol: as §1

[5] = molecular target: T3, P. hybrida EPSPS variant glypR (Gly-Ala, Pro-Ser) (Petunia hybrida, UniProt P11043, G173A/P178S); assay: as above; type: biochemical
T3 sequence (P11043 73-516 G173A/P178S): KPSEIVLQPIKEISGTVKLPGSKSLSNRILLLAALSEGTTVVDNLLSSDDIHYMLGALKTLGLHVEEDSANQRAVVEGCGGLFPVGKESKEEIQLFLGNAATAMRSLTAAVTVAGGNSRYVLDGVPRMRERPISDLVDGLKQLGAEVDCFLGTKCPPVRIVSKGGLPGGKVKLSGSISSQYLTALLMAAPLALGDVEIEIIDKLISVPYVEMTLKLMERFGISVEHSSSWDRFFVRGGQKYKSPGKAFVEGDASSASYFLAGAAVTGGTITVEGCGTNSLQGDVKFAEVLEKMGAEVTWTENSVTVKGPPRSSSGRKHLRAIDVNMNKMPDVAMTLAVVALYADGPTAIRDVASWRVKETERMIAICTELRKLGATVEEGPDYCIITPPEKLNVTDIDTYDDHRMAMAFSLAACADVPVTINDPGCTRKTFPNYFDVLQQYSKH
Protocol: as §1

O=C(O)CNCP(=O)(O)O [glyphosate, N-phosphonomethylglycine]
IC50 [1]: ~3 µM | increase in tolerance to glyphosate due to EPSP synthase from tolerant E. indica biotype [2]: approximately three-fold increase in tolerance to glyphosate | Ki [3]: 60 µM | Ki [4]: 0.2 µM | Ki [5]: 8500 µM
